{
  "source": "patent US20100267629A1",
  "about": "“Enterostatin as Therapeutic Agent for Hypoglycemia” (Board of Supervisors of Louisiana State University and …, priority 2006, published 2010)",
  "key": {"C57B1/6 male mice [1]": {"test_system": "C57B1/6 male mice", "assay": "Blood glucose response to insulin", "assay_type": "in vivo, mouse", "protocol": "(§1) Animals: C57B1/6 male mice were purchased from The Jackson Laboratory (Bar Harbor, Me.) at 6 weeks of age. The mice were initially housed in groups of three in acrylic cages in a room with a 12-hour light/dark cycle and with controlled temperature (22 to 23° C.) and with free access to water. The mice were fed a high fat diet (4.78 kcal/g, 56% energy as fat; Research Diets Inc, Brunswick, N.J.). The composition of the diet has been previously described (15). Body weights were measured three time per week. At 8 weeks of age, the mice were switched to single housing.\n(§2) Peptide Injections: Enterostatin was dissolved in 0.1 ml saline (0.9% NaCl w/v), and given as a single dose of either 5 μg or 25 μg/mouse. Either enterostatin or saline (control) was injected intraperitoneally. In the experiments involving insulin, insulin (0.75 mU/g body weight) or saline (0.1 ml/10 g body weight; control) was injected intraperitoneally.\nEnterostatin Effect on Blood Glucose Response to Insulin. To test the effect of enterostatin on the blood glucose response to exogenous insulin, mice were fasted for 4 hours, and insulin (0.75 mU/gm body weight) or saline (0.1 ml/10 gm body weight) was injected intraperitoneally at time zero. Enterostatin (5 or 25 ug/mouse in 0.1 ml saline vehicle) or saline vehicle was also injected intraperitoneally (ip) at time zero. Blood samples were taken from the tail vein immediately before the injections, and then at 15, 30, 45 and 60 minutes afterwards. The samples were assayed for glucose on a glucometer (Ascencia Elite XL, Bayer, Pittsburgh, Pa.)."}, "C57B1/6 male mice [2]": {"test_system": "C57B1/6 male mice", "assay": "Fasting blood glucose after enterostatin injection", "assay_type": "in vivo, mouse", "protocol": "as §1, §2\nEnterostatin Effect on Fasting Blood Glucose. To directly test the effect of enterostatin on blood glucose, mice were fasted for 18 hours, and enterostatin (25 μg/mouse) or 0.1 ml saline vehicle was injected intraperitoneally at zero time. Blood samples were taken from the tail vein at 15, 30, 45 and 60 min after enterostatin injection. The blood samples were assayed for glucose using a glucometer."}, "AMPK [3]": {"test_system": "AMPK", "assay": "pAMPK Western blot in HepG2 cells, 15 min incubation", "assay_type": "cell-based, human", "protocol": "Human liver cells (HepG2 cell line, American Type Culture Collection, Manassas, Va.) were grown and maintained in Dulbecco's modified eagle's medium (Gibco, Carlsbad, Calif.) containing 10% fetal bovine serum, penicillin (100 I.U./ml), and streptomycin (100 μg/ml). The cells were then incubated for 15 min with 5 mM glucose and various concentrations of enterostatin (0.003, 0.01, 0.1, 1, and 3 μM) and/or of its antagonist β-casomorphin (BCM) (0.003, 0.01, 0.1, 1, and 3 μM). After incubation, the cells were lysed and the cytosolic proteins subjected to Western blot analysis for AMPK and pAMPK. The results for pAMPK activity are shown in FIG. 5A (enterostatin) and FIG. 5B (BCM). […] This effect was blocked by the presence of an antibody to the enterostatin receptor (anti F1-ATPase beta subunit)."}, "AMPK [4]": {"test_system": "AMPK", "assay": "pAMPK Western blot in HepG2 cells, 60 min incubation", "assay_type": "cell-based, human", "conditions": "HepG2, one hour incubation", "protocol": "(§3) In a second experiment, human liver cells (HepG2 cell line, American Type Culture Collection, Manassas, Va.) were grown and maintained in Dulbecco's modified eagle's medium (Gibco, Carlsbad, Calif.) containing 10% fetal bovine serum, penicillin (100 I.U./ml), and streptomycin (100 μg/ml). The cells were then incubated for 60 min with 5 mM glucose and various concentrations of enterostatin (0.001, 0.01, 0.03, 0.1, 1.0 μM). After incubation, the cells were lysed and the cytosolic proteins subjected to Western blot analysis for pAMPK and PKARIIβ."}, "PKARIIβ": {"test_system": "PKARIIβ", "assay": "PKARIIβ Western blot in HepG2 cells, 60 min incubation", "assay_type": "cell-based, human", "conditions": "HepG2, one hour incubation", "protocol": "as §3"}, "[5]": {"target": "brain membrane preparation", "conditions": "low affinity binding; cited from earlier work"}, "[6]": {"test_system": "SK-N-MC neuroepithelioma cells", "conditions": "cited from earlier work"}, "[7]": {"target": "T1, beta subunit of ATP synthase (Homo sapiens, UniProt P06576)", "T1 construct": "from tissue; host or cells: liver plasma membranes", "T1 sequence (P06576 48-529)": "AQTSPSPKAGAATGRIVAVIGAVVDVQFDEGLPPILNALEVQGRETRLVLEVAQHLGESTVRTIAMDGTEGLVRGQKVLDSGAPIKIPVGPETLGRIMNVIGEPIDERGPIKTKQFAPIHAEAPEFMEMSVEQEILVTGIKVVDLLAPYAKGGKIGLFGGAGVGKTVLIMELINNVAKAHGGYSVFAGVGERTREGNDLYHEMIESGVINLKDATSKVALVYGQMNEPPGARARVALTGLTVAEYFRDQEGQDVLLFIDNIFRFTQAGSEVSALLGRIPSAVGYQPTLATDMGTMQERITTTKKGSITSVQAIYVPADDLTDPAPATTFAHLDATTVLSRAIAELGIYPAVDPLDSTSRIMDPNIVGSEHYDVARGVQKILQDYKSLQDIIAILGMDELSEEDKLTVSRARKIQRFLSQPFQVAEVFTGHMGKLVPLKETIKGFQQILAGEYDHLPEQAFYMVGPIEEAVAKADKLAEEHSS", "T1 sequence (P25705 44-553 partner)": "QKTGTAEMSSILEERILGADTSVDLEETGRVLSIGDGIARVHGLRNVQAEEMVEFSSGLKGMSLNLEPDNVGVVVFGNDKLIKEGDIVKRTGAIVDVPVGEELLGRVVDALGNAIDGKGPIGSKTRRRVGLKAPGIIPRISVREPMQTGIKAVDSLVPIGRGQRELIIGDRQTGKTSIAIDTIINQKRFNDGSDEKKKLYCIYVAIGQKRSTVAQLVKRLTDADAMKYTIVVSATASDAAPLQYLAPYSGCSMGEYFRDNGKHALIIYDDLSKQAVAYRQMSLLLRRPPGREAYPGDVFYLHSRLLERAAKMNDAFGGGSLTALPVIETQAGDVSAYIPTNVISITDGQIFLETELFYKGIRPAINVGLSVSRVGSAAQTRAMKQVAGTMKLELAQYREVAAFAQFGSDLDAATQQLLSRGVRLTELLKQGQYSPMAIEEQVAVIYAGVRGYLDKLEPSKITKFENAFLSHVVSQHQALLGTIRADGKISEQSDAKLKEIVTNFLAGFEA", "T1 sequence (P36542 26-298 partner)": "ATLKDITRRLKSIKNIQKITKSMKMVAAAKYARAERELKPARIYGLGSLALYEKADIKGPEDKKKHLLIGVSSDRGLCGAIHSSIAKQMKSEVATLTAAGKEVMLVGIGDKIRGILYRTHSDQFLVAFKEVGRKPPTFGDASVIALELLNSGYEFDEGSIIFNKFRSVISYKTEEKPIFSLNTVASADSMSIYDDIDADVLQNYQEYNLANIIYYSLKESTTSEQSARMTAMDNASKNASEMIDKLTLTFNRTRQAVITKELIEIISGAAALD", "T1 sequence (P30049 23-168 partner)": "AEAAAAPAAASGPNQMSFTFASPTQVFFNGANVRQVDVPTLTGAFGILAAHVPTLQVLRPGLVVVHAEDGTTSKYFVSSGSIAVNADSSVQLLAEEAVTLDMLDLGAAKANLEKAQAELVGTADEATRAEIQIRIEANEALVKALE", "T1 sequence (P56381 2-51 partner limits assumed)": "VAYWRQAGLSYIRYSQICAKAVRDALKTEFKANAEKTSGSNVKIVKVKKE", "conditions": "receptor protein on liver plasma membranes; cited from earlier work"}, "rats": {"test_system": "rats", "conditions": "cited from earlier work; for Duration of action on feeding: single injection"}, "rabbits": {"test_system": "rabbits", "conditions": "single-choice diet; cited from earlier work"}, "sheep": {"test_system": "sheep", "conditions": "single-choice diet; cited from earlier work"}, "baboons": {"test_system": "baboons", "conditions": "single-choice diet; cited from earlier work"}, "kappa-opioid receptors": {"target": "kappa-opioid receptors (Homo sapiens, UniProt P41145)", "sequence (P41145 whole entry)": "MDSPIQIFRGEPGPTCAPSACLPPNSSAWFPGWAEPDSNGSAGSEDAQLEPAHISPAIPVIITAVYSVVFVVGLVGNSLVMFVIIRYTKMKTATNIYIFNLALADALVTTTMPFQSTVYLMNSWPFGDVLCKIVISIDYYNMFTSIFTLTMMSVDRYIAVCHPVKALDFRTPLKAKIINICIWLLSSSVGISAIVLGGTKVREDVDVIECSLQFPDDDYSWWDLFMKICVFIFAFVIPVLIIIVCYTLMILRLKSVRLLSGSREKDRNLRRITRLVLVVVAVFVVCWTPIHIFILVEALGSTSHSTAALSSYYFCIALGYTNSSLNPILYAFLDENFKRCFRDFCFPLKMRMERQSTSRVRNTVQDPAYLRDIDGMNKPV", "conditions": "cited from earlier work"}, "[8]": {"target": "T2, cholecystokinin A receptors (Homo sapiens, UniProt P32238)", "T2 sequence (P32238 1-428)": "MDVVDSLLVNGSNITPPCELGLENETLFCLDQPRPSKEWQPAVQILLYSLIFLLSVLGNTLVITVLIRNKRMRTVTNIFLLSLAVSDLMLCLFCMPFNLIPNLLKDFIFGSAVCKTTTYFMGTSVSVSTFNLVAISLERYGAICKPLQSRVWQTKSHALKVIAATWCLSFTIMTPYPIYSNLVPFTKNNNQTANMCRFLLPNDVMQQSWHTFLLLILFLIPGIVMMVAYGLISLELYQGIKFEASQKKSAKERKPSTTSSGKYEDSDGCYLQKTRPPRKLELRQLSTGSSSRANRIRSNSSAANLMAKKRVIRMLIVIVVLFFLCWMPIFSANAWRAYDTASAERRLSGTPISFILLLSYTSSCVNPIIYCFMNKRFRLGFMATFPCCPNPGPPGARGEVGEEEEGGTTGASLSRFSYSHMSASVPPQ", "conditions": "cited from earlier work"}, "[9]": {"conditions": "peripheral and central administration; cited from earlier work"}, "[10]": {"conditions": "three-choice macronutrient diet"}},
  "note": "Read-outs that look alike come from different tables or passages of the source.",
  "data": [
    {"substance": "Enterostatin: aminoterminal pentapeptide of procolipase released when procolipase is converted into colipase (VPDPR; printed: Val-Pro-Asp-Pro-Arg)", "values": [
      {"measurement": "Blood glucose level versus zero-time level after insulin", "setting": "C57B1/6 male mice [1]; 5 μg/mouse ip, at 60 min", "result": "had not returned to zero-time levels"},
      {"measurement": "Time for which blood glucose is increased after injection", "setting": "C57B1/6 male mice [1]; conclusion from insulin response test", "result": "≥ 30", "unit": "min"},
      {"measurement": "Delay of initial fall in blood glucose in response to insulin", "setting": "C57B1/6 male mice [1]; higher dose (25 μg/mouse) ip", "result": 30, "unit": "min"},
      {"measurement": "Blood glucose level versus zero-time level after insulin", "setting": "C57B1/6 male mice [1]; higher dose (25 μg/mouse) ip, 45 to 60 min", "result": "remained below the zero-time level"},
      {"measurement": "Blood glucose levels compared to saline control", "setting": "C57B1/6 male mice [2]; 25 μg/mouse ip, 18 h fasted", "result": "rapid increase in blood glucose levels"},
      {"measurement": "Increase in blood glucose versus saline vehicle", "setting": "C57B1/6 male mice [2]; 25 μg/mouse ip, at 15 and 30 min", "result": "significantly greater"},
      {"measurement": "Duration of raised glucose levels after injection", "setting": "C57B1/6 male mice [2]; injection into mice", "result": "remained high for up to an hour after injection"},
      {"measurement": "Time to increase in blood glucose levels after injection", "setting": "C57B1/6 male mice [2]; injection into mice", "result": "≤ 15", "unit": "min"},
      {"measurement": "Effect on pAMPK in presence of antibody anti F1-ATPase beta subunit", "setting": "AMPK [3]; HepG2, 15 min, 5 mM glucose", "result": "blocked"},
      {"measurement": "AMPkinase activity shown by pAMPK", "setting": "AMPK [3]; HepG2, 15 min, 5 mM glucose, 0.003-3 μM", "result": "inhibited AMPkinase"},
      {"measurement": "β-casomorphin stimulation of pAMPK levels", "setting": "AMPK [3]; HepG2, enterostatin 0.01, 0.1 and 1.0 uM with β-casomorphin", "result": "reversed dose-dependently"},
      {"measurement": "Dose of peak effect on pAMPK", "setting": "AMPK [4]", "result": 0.01, "unit": "μM"},
      {"measurement": "pAMPK levels", "setting": "AMPK [4]; 5 mM glucose", "result": "increase in pAMPK levels"},
      {"measurement": "Dose of peak increase in PKARIIβ", "setting": "PKARIIβ", "result": 10, "unit": "nM"},
      {"measurement": "PKARIIβ", "setting": "PKARIIβ; 5 mM glucose", "result": "increase in PKARIIβ"},
      {"measurement": "Kd", "setting": "[5]", "result": 230, "unit": "nM"},
      {"measurement": "Kd", "setting": "[6]", "result": 40, "unit": "nM"},
      {"measurement": "Kd", "setting": "[7]", "result": 2.5, "unit": "nM"},
      {"measurement": "Duration of action on feeding", "setting": "rats; rats adapted to ad-libitum feeding", "result": "up to 24 hours"},
      {"measurement": "Duration of action on feeding", "setting": "rats; rats adapted to six-hour feeding schedule", "result": "lasting up to six hours"},
      {"measurement": "Carbohydrate or protein intake", "setting": "rats; [10]", "result": "no effect"},
      {"measurement": "Intake of the fat macronutrient", "setting": "rats; [10]", "result": "reduced intake of the fat macronutrient"},
      {"measurement": "Intake of HF and LF diet", "setting": "rats; two-choice high-fat / low-fat diet", "result": "reduced only intake of the HF diet"},
      {"measurement": "Food intake", "setting": "rabbits", "result": "reduce food intake"},
      {"measurement": "Food intake", "setting": "sheep", "result": "reduce food intake"},
      {"measurement": "Food intake", "setting": "baboons", "result": "reduce food intake"},
      {"measurement": "Binding", "setting": "kappa-opioid receptors", "result": "not to bind"},
      {"measurement": "Binding", "setting": "[8]", "result": "not to bind"},
      {"measurement": "Insulin levels", "setting": "[9]", "result": "reduction in insulin levels"},
      {"measurement": "Plasma glucose", "setting": "[9]", "result": "without any changes in plasma glucose"}
    ]}
  ]
}
